Results on 23 molecules are retold here after US20230126310A1 (priority 2020, published 2023).

Structures can show the parent of a compound that is named as a salt. Where two headings read alike, the source gives them in different places.

The subject of data set [1] is SARS-CoV-2 (BetaCov/Belgium/GHB-03021/2020). Description: microbe, parasite or virus in culture. In kind it is cell-based. The settings on record: for Emax: Severe acute respiratory syndrome coronavirus 2, 120 h, read-out: Maximum confluence reached (%).
The subject of data set [2] is SARS-CoV-2. Conditions: for % Inh. (% Inhibition of SARS-CoV-2): 10 µM.
The subject of the next data set is CaCo-2 cells. Put plainly: Compound cytotoxicity against CaCo-2 cells at 48 hours. In kind it is cell-based, Human. The settings on record: read-out: CC50: concentration of 50% cytotoxicity; Table 5, further results of Examples 1 and 2; mean ± spread. As to the method: The cytotoxicity of the profiled compounds towards CaCo-2 cells at 48 hours was assessed. […] After 48 hours, cytotoxicity was evaluated using both digital phase contrast readout as described above and ATP determination (Cell titre-glo, Promega Corp).

Data set [3] concerns SARS-CoV-2. Put plainly: microbe, parasite or virus in culture. Conditions: Severe acute respiratory syndrome coronavirus 2, Caco-2, 48 h; for inhibition at 10 µM: read-out: % Inh. (% Inhibition of SARS-CoV-2).
Setting [4] is: Table 5, further results of Examples 1 and 2.
The mark [5] stands for this setting: read-out: IC50: concentration of 50% inhibition of virus infection, Table 5, further results of Examples 1 and 2, […].

Consider `Cl.Nc1nc(NCC2CCC(CNS(=O)(=O)c3cccc4ccccc34)CC2)nc2ccccc12` (stereo not shown) [CGP-71683], for which, in data set [1], the “Maximum confluence reached (%)” value came to 39.25%. For the same molecule, the “% Inh. (% Inhibition of SARS-CoV-2)” value with SARS-CoV-2 [2] was determined as 102.5%.
Taken in the same sequence, the figures for `OCCNC1CCCc2c1[nH]c1ccc(-c3ccccc3)cc21` (stereo not shown) [casin] were 50.81% and 71.2%.
As for `C=C(c1ccccc1OCc1cccc(Cl)c1)n1ccnc1` [Cloconazole HCl], the CC50 in the data set with CaCo-2 cells worked out at 33 µM. Also, in the data set on SARS-CoV-2 [2], the “% Inh. (% Inhibition of SARS-CoV-2)” value came to 92.8%.
In the case of `Cc1cccc2c1CC[C@H](CN1CCC(c3c(Cl)cccc3Cl)CC1)C[C@@H]2O` [SB-612111], the CC50 in the data set on CaCo-2 cells worked out at 3.67 ± 3.21 µM. Also, the “% Inh. (% Inhibition of SARS-CoV-2)” value in the data set on SARS-CoV-2 [2] is given as 146.6%. For the same molecule, in the data set with SARS-CoV-2 [2] (setting [4]), the “pIC50: -log10 of IC50” value amounted to 6.11. In addition, in the data set on SARS-CoV-2 [2] (setting [5]), the IC50 is 0.77 ± 0.29 µM.
`CC(C)(C)c1cc(/C=C(\C#N)C(N)=S)cc(C(C)(C)C)c1O` [Tyrphostin AG 879 (AG 879), Tyrphostin AG 879]: in the data set with CaCo-2 cells, the CC50 was found to be 1.36 ± 0.08 µM. Further, in the data set on SARS-CoV-2 [2], the IC50 came out at 0.2 µM, the pIC50 is reported as 6.70 and the “% Inh. (% Inhibition of SARS-CoV-2)” value is 104.2%. Also, the “pIC50: -log10 of IC50” value in the data set on SARS-CoV-2 [2] (setting [4]) was found to be 6.70. Also, the IC50 in the data set with SARS-CoV-2 [2] (setting [5]) is 0.2 ± 0.01 µM.
With `NC(=NC1C2CC3CC(C2)CC1C3)Nc1ccc(I)cc1` (stereo not shown) [IPAG], the “Maximum confluence reached (%)” value in data set [1] is given as 81.85%. Besides, the CC50 in the data set on CaCo-2 cells was 11.5 ± 9.83 µM. Further, in the data set on SARS-CoV-2 [2], the “% Inh. (% Inhibition of SARS-CoV-2)” value was determined as 180.5%. Moreover, the “pIC50: -log10 of IC50” value in the data set on SARS-CoV-2 [2] (setting [4]) amounted to 5.22. Besides, the IC50 in the data set with SARS-CoV-2 [2] (setting [5]) was determined as 5.96 ± 0.57 µM.
Turning to `C[CH2][Hg][S]c1ccccc1C(=O)[O-].[Na+]` [THIMEROSAL], in the data set with CaCo-2 cells, the CC50 is 13.5 ± 1.23 µM. Also, in the data set with SARS-CoV-2 [2], the IC50 came to 1.77 µM, the pIC50 amounted to 5.75, the “pIC50: -log10 of IC50” value was 5.77 and the “% Inh. (% Inhibition of SARS-CoV-2)” value is 79.4%. In the data set on SARS-CoV-2 [2] (read-out: IC50: concentration of 50% inhibition of virus infection), the IC50 came out at 1.69 ± 0.13 µM.
For the molecule `Nc1nccc(-c2c(-c3ccc(F)cc3)ncn2C2CCCCC2)n1` [PF-670462], in the data set on CaCo-2 cells, the CC50 stood at 8.24 ± 7.87 µM. Also, in the data set with SARS-CoV-2 [2], the “% Inh. (% Inhibition of SARS-CoV-2)” value is listed as 111.6%.
On the same counts, the results for `CC(C)(C)c1ccc(/C=C/C(=O)Nc2ccc3c(c2)OCCO3)cc1` [AMG-9810] are 14.2 ± 17.9 µM and 93.7%.
Turning to `CC(=O)[C@]1(O)Cc2c(O)c3c(c(O)c2[C@@H](O[C@H]2C[C@H](N)[C@H](O)[C@H](C)O2)C1)C(=O)c1ccccc1C3=O` [Idarubicin HCl], the Emax in data set [1] amounted to 92.6%. Moreover, in the data set with SARS-CoV-2 [3], the IC50 is 25 µM and the inhibition at 10 µM was 86.6%. In addition, in the data set with SARS-CoV-2 [3] (read-out: pIC50 (converted)), the IC50 is 25.1 µM.
On to `CCOC(=O)c1ncc2[nH]c3ccc(OCc4ccccc4)cc3c2c1COC.Cl` [ZK-93423], for which, in the data set with CaCo-2 cells, the CC50 was found to be 0.91 ± 0.13 µM. Also, in the data set with SARS-CoV-2 [2], the IC50 was found to be 1.28 µM, the pIC50 is 5.89 and the “% Inh. (% Inhibition of SARS-CoV-2)” value is 75.1%. Besides, the “pIC50: -log10 of IC50” value in the data set with SARS-CoV-2 [2] (setting [4]) was found to be 5.87. Further, the IC50 in the data set with SARS-CoV-2 [2] (setting [5]) came to 1.34 ± 0.92 µM.
Consider `FC(F)(F)Oc1ccc2nc(-c3ccc(OCCOCCOc4ccc(-c5nc6ccc(OC(F)(F)F)cc6[nH]5)nc4)cn3)[nH]c2c1` [AI-10-49], for which, in the data set with CaCo-2 cells, the CC50 came out at 6.58 ± 9.76 µM. In the data set with SARS-CoV-2 [2], the pIC50 amounted to 6.68 and the “% Inh. (% Inhibition of SARS-CoV-2)” value is recorded as 103.8%. For the same molecule, in the data set with SARS-CoV-2 [2] (setting [4]), the “pIC50: -log10 of IC50” value stood at 6.72. The IC50 with SARS-CoV-2 [2] (setting [5]) was found to be 0.19 ± 0.06 µM.
Take `Cn1cc(-c2ccc3c(c2)CCN3C(=O)Cc2cccc(C(F)(F)F)c2)c2c(N)ncnc21` [GSK2606414]: the CC50 in the data set on CaCo-2 cells was 70.4 ± 15.3 µM. For the same molecule, in the data set on SARS-CoV-2 [2], the IC50 is 0.2 µM, the pIC50 is listed as 6.70 and the “% Inh. (% Inhibition of SARS-CoV-2)” value turned out to be 109.9%. For the same molecule, in the data set on SARS-CoV-2 [2] (setting [4]), the “pIC50: -log10 of IC50” value was determined as 6.60. Further, in the data set on SARS-CoV-2 [2] (setting [5]), the IC50 amounted to 0.25 ± 0.06 µM.
Consider `CCS(=O)(=O)N(Cc1cccnc1)c1cccc(-c2ccc(C#N)cc2)c1` [CBiPES], for which, in the data set with CaCo-2 cells, the CC50 is 13.4 ± 6.58 µM. In addition, the “% Inh. (% Inhibition of SARS-CoV-2)” value with SARS-CoV-2 [2] stood at 139.6%. Besides, the “pIC50: -log10 of IC50” value with SARS-CoV-2 [2] (setting [4]) was determined as 4.77. For the same molecule, the IC50 with SARS-CoV-2 [2] (setting [5]) stood at 17.1 ± 1.17 µM.
In the case of `CCCCC1(C2CCCC2)Cc2cc(OCCCC(=O)O)c(Cl)c(Cl)c2C1=O` (stereo not shown) [DCPIB], the CC50 with CaCo-2 cells was 24.6 ± 11.7 µM. Further, the “% Inh. (% Inhibition of SARS-CoV-2)” value with SARS-CoV-2 [2] was 80.3%.
For the molecule `Cn1cc(-c2ccncc2)c(-c2ccc(OCc3ccc4ccccc4n3)cc2)n1` [PF-2545920], the “Maximum confluence reached (%)” value in data set [1] turned out to be 36.73%. Also, the “% Inh. (% Inhibition of SARS-CoV-2)” value in the data set with SARS-CoV-2 [2] was 67.8%.
On the same counts, the results for `COc1cc2ncnc(Nc3cccc(Br)c3)c2cc1OC.Cl` [PD153035 (Hydrochloride)] are 54.45% and 97.2%.
Turning to polidocanol, the CC50 in the data set with CaCo-2 cells came out at 10.3 ± 1.62 µM. Also, in the data set with SARS-CoV-2 [2], the pIC50 is listed as 6.68 and the “% Inh. (% Inhibition of SARS-CoV-2)” value turned out to be 85.8%. Moreover, the “pIC50: -log10 of IC50” value in the data set on SARS-CoV-2 [2] (setting [4]) is on record as 6.66. The IC50 in the data set with SARS-CoV-2 [2] (setting [5]) was determined as 0.22 ± 0.02 µM.
Consider `Cc1nn(C)c2nc(NNC(=O)Nc3cc(Cl)nc(Cl)c3)cc(C(C)C)c12` [JTE-013], for which, in the data set with CaCo-2 cells, the CC50 came out at 16.4 ± 0.42 µM. In addition, in the data set with SARS-CoV-2 [2], the IC50 is 3.66 µM, the pIC50 worked out at 5.44 and the “% Inh. (% Inhibition of SARS-CoV-2)” value worked out at 105.9%. Also, the “pIC50: -log10 of IC50” value in the data set on SARS-CoV-2 [2] (setting [4]) stood at 5.22. Moreover, the IC50 with SARS-CoV-2 [2] (setting [5]) was found to be 5.97 ± 0.15 µM.
For the molecule `CC[C@@H](C(=O)[C@@H](C)[C@@H](O)[C@H](C)[C@@H]1O[C@@H]([C@@H](CC)C(=O)O)CC[C@@H]1C)[C@H]1O[C@]2(C=C[C@@H](O)[C@]3(CC[C@@](C)([C@H]4CC[C@](O)(CC)[C@H](C)O4)O3)O2)[C@H](C)C[C@@H]1C` [Salinomycin (Procoxacin), Salinomycin], the Emax in data set [1] is 34.4%. Moreover, in the data set on SARS-CoV-2 [3], the inhibition at 10 µM was 90.2%.
`C/C(=N\NC(=S)N1CCC1)c1ccccn1` [NSC319726]: the CC50 with CaCo-2 cells was under 0.02 µM. Moreover, in the data set on SARS-CoV-2 [2], the pIC50 was found to be 8.00 and the “% Inh. (% Inhibition of SARS-CoV-2)” value came to 104.2%. In the data set with SARS-CoV-2 [2] (setting [4]), the “pIC50: -log10 of IC50” value is recorded as over 7.70. Moreover, the IC50 in the data set with SARS-CoV-2 [2] (setting [5]) is under 0.02 µM.
In the case of `CCCc1c(-c2ccc(O)cc2)nn(-c2ccc(O)cc2)c1-c1ccc(O)cc1` [PPT], in data set [1], the “Maximum confluence reached (%)” value was 48.2%. In addition, the IC50 in data set [1] (read-out: IC50) came to 8.3 µM. Further, the “% Inh. (% Inhibition of SARS-CoV-2)” value in the data set with SARS-CoV-2 [2] is given as 71.1%.
For `O=C(O)Cc1cccc(OCCCN(Cc2cccc(C(F)(F)F)c2Cl)CC(c2ccccc2)c2ccccc2)c1` [GW-3965], in data set [1], the Emax was found to be 38%. Moreover, in the data set on SARS-CoV-2 [3], the inhibition at 10 µM worked out at 91.4%.
